Usually EC50 stands for the concentration needed to bring the measured effect to its halfway point.

The text below walks through data of patent US9480259B2, “Pyrazolopyrans having herbicidal and pharmaceutical properties” (BASF SE, priority 2012, dated 2016).

The target of the experiment is Arabidopsis thaliana SHMT. Briefly: SHMT activity assay (ED50 SHMT), coupled with N5,N10-CH2-THF dehydrogenase, NADH at 340 nm. The format is biochemical. As for the experimental part:
Determination of the ED50 SHMT was carried out as described hereinunder.
Purification of Arabidopsis thaliana SHMT
The following buffers were used during the purification protocol:
Buffer A (Lysis and Wash Buffer): • 20 mM Na-Phosphat (pH 7,4) • 500 mM NaCI • 40 mM Imidazole • 1.0 mM L-Serine • 0.5 mM Pyridoxal-5-phosphate • 0.5 mM DTT
Buffer B (Elution Buffer): • 20 mM Na-Phosphat (pH 7,4) • 500 mM NaCl • 250 mM Imidazole • 1.0 mM L-Serine • 0.5 mM Pyridoxal-5-phosphate • 0.5 mM DTT
All procedures were conducted at 4° C. or on ice. Pellets were suspended in Buffer A containing 1 mg/ml DNAse +Complete EDTA-free protease inhibitor tablet. Cells were lysed using sonication or a French Press device, using standard settings. Lysis was centrifuged at 40000×g for 25 minutes. The supernatant was filtered (0.22 μM) before loading onto a Ni-NTA column.
A gravity flow column containing Ni-NTA resin was equilibrated with 10 CV Buffer A and loaded with filtered cell lysate. The column was then washed with 10 CV Buffer A. Elution was afforded using Buffer B and collected manually as mini-factions. EDTA was added after elution to a final concentration of 1 mM. Fractions were pooled on the basis of the correct band for SHMT visualised via SDS-PAGE and staining.
SHMT Assay Buffer: • 50 mM KH2PO4 (pH 7,4) • 2.0 mM NAD+ • 7.5 mM DTT • 0.3 mM Tetrahydrofolic acid • 4% DMSO
Reaction Start: 20 mM L-Serine
The rate of N5,N10-CH2-THF formation catalyzed by SHMT was monitored at 340 nm by coupling with excess N5,N10-CH2-THF dehydrogenase, which converts NAD+to NADH. Reactions were initiated by adding 20 mM L-Serine. Inhibition of initial velocity was determined by adding various inhibitors of the SHMT reaction and monitored as described. Reactions were measured in a Bio Tek micro titer plate reader following the change in absorption with the formation of NADH for 30 mimnutes.

The mark [1] stands for this setting: Table 2, values given as upper bounds.
The mark [2] stands for this setting: Arabidopsis thaliana SHMT enzyme assay, values given as upper bounds.
Setting [3] is: Table 2, Arabidopsis thaliana SHMT enzyme assay, values given as upper bounds.
The mark [4] stands for this setting: inhibition of initial velocity of Arabidopsis thaliana SHMT.

In turn, `Cc1n[nH]c2c1C(c1ccc(OC(F)(F)F)cc1)(C(C)C)C(C#N)=C(N)O2` (racemic) [Compound 2.145.] came in with an EC50 under setting [1] of under 1000 nM. Turning to `Cc1n[nH]c2c1C(c1cccc(Br)c1)(C(C)(F)F)C(C#N)=C(N)O2` (stereo not drawn) [Compound 2.702], the EC50 under setting [2] was under 100 nM. As to `Cc1n[nH]c2c1C(c1cccc(Cl)c1)(C(C)C)C(C#N)=C(N)O2` (stereo not drawn) [Compound 2.122.], the EC50 under setting [1] was under 100 nM. The same measure, in the same setting: as for `Cc1n[nH]c2c1C(c1cc(C#N)cc(N(C)C(=O)CCCC(=O)O)c1)(C1CCC1)C(C#N)=C(N)O2` (stereo not drawn) [Compound 2.636], the figure is under 10 nM. Turning to `CCc1n[nH]c2c1C(CC)(c1cc(C(F)(F)F)cc(C(F)(F)F)c1)C(C#N)=C(N)O2` (stereo not drawn) [Compound 2.84.], the EC50 under setting [1] is under 100 nM. With `N#CC1=C(N)Oc2[nH]ncc2C1(c1cc(C#N)cc(C(=O)O)c1)C1CCC1` (stereo not drawn) [Compound 2.372], under setting [3], the EC50 is under 10000 nM. With `Cc1n[nH]c2c1C(c1cc(O)cc(Cl)c1)(C1CCC1)C(C#N)=C(N)O2` (stereo not drawn) [Compound 2.508], under setting [1], the EC50 was under 10000 nM.

Turning to `Cc1n[nH]c2c1C(c1cc(C#N)cc(N(C)C(=O)CCc3nnn[nH]3)c1)(C1CCC1)C(C#N)=C(N)O2` (stereo not drawn) [Compound 2.718], the concentration for a half-maximal effect (EC50) under setting [2] was under 100 nM.

Under setting [4], `Cc1n[nH]c2c1C(c1ccc(Cl)s1)(C1CC1)C(C#N)=C(N)O2` (stereo not drawn) [Compound 4.74] had an EC50 of under 1000 nM. Compound `Cc1n[nH]c2c1C(c1cc(C#N)cc(-c3cc(OC(F)(F)F)cc(C(=O)O)c3)c1)(C1CCC1)C(C#N)=C(N)O2` (stereo not drawn) [Compound 2.643] showed an EC50 under setting [1] of under 10 nM. Consider `Cc1n[nH]c2c1C(c1cccc(Cl)c1)(C1CCC1)C(C#N)=C(N)O2` (stereo not drawn) [Compound 2.172.], for which the EC50 under setting [1] was under 100 nM. As to `N#CC1=C(N)Oc2[nH]nc(CO)c2C1(c1cc(C(F)(F)F)cc(C(F)(F)F)c1)C1(F)CC1` (stereo not drawn) [Compound 2.465], under setting [1], the EC50 was under 100 nM. On the same count and under the same terms, as for `Cc1n[nH]c2c1C(c1ccc(OCc3ccccc3)c(Cl)c1)(C1CC1)C(C#N)=C(N)O2` (stereo not drawn) [Compound 2.186.], the figure is under 100 nM. Same read-out and setting: as for `CCc1n[nH]c2c1C(c1cccc(Cl)c1)(C1CCC1)C(C#N)=C(N)O2` (stereo not drawn) [Compound 2.173.], the figure is under 100 nM.

Under setting [4], `Cc1n[nH]c2c1C(c1cc(-c3ccco3)cs1)(C1CCC1)C(C#N)=C(N)O2` (stereo not drawn) [Compound 4.41] had an EC50 of under 10 nM. With `Cc1n[nH]c2c1C(c1cc(Cl)cc(C#N)c1)(C1(F)CC1)C(C#N)=C(N)O2` (racemic) [Compound 2.379], the concentration giving a half-maximal response (EC50) under setting [3] is under 10 nM. `Cc1n[nH]c2c1C(c1nc3ccccc3o1)(C1CCC1)C(C#N)=C(N)O2` (stereo not drawn) [Compound 4.46]: the EC50 under setting [4] is under 10 nM. For `CCC1(c2ccc(NC(=O)OC)cc2)C(C#N)=C(N)Oc2[nH]nc(C)c21` (stereo not drawn) [Compound 2.80.], the EC50 under setting [1] was under 1000 nM. On the same count and under the same terms, as for `COC(=O)Cc1cccc(-c2cc(C#N)cc(C3(C4CCC4)C(C#N)=C(N)Oc4[nH]nc(C)c43)c2)c1` (stereo not drawn) [Compound 2.524], the figure is under 10 nM. Under setting [4], `Cc1n[nH]c2c1C(c1ccc(C(=O)O)s1)(C1CCC1)C(C#N)=C(N)O2` (stereo not drawn) [Compound 4.80] had an EC50 of under 10000 nM.

As to `CCC1(c2cc(F)cc(Br)c2)C(C#N)=C(N)Oc2[nH]nc(C)c21` (racemic) [Compound 2.467], the EC50 under setting [1] was under 100 nM. Same read-out and setting: for `CCC1(c2cccc(F)c2)C(C#N)=C(N)Oc2[nH]nc(C)c21` (stereo not drawn) [Compound 2.15.] the value was under 10000 nM.

`CCC1(c2cc(C(F)(F)F)cc(C(F)(F)F)c2)C(C#N)=C(N)Oc2[nH]nc(C(C)C)c21` (stereo not drawn) [Compound 2.120.]: the EC50 under setting [1] was under 100 nM.

In the case of `CCC1(c2ccc(OC(=O)c3c(Cl)cccc3Cl)c(C)c2)C(C#N)=C(N)Oc2[nH]nc(C)c21` (stereo not drawn) [Compound 2.48.], under setting [1], the EC50 is under 10000 nM. Consider `COc1ccc2cc(C3(C4CCC4)C(C#N)=C(N)Oc4[nH]nc(C)c43)ccc2c1` (stereo not drawn) [Compound 4.36], for which the EC50 under setting [4] was under 10 nM. For `Cc1n[nH]c2c1C(c1cc(C#N)cc(-c3ccc(C(=O)O)cc3)c1)(C(C)C)C(C#N)=C(N)O2` (stereo not drawn) [Compound 2.519], under setting [1], the EC50 was under 10 nM. The compound `Cc1n[nH]c2c1C(c1cc(C#N)cc(CCC#N)c1)(C1CCC1)C(C#N)=C(N)O2` (stereo not drawn) [Compound 2.650] registered an EC50 under setting [1] of under 10 nM. Still for that read-out and setting: for `COC(=O)c1cccc(-c2cc(Cl)cc(C3(C4CCC4)C(C#N)=C(N)Oc4[nH]nc(C)c43)c2)c1` (stereo not drawn) [Compound 2.456] the value was under 10 nM. The same measure, in the same setting: as for `COC(=O)CCc1cccc(-c2cc(C#N)cc(C3(C4CCC4)C(C#N)=C(N)Oc4[nH]nc(C)c43)c2)c1` (stereo not drawn) [Compound 2.525], the figure is under 10 nM. `Cc1n[nH]c2c1C(c1cc(C#N)cc(N(C)C(=O)CCCc3nnn[nH]3)c1)(C1CCC1)C(C#N)=C(N)O2` (stereo not drawn) [Compound 2.727] gave an EC50 under setting [2] of under 100 nM. As to `Cc1n[nH]c2c1C(c1cc(-c3nnn[nH]3)cc(C(F)(F)F)c1)(C1CCC1)C(C#N)=C(N)O2` (stereo not drawn) [Compound 2.355], under setting [3], the EC50 is under 10 nM.

Under setting [2], `Cc1n[nH]c2c1C(c1ccc(CCCC#N)c(Cl)c1)(C1CCC1)C(C#N)=C(N)O2` (stereo not drawn) [Compound 2.673] registered an EC50 of under 10 nM. Take `COc1n[nH]c2c1C(c1cc(C#N)cc(C(F)(F)F)c1)(C1CCC1)C(C#N)=C(N)O2` (stereo not drawn) [Compound 2.390]: the EC50 under setting [3] is under 10 nM. `Cc1n[nH]c2c1C(c1ccc(Cc3nnn[nH]3)c(Cl)c1)(C1CCC1)C(C#N)=C(N)O2` (stereo not drawn) [Compound 2.639] yielded an EC50 under setting [1] of under 10 nM. For the compound `N#CC1=C(N)Oc2[nH]ncc2C1(c1cc(C#N)cc(C#N)c1)C1CCC1` (stereo not drawn) [Compound 2.286], the EC50 under setting [3] was under 10 nM. `Cc1n[nH]c2c1C(c1ccc(CCc3nnn[nH]3)c(Cl)c1)(C1CCC1)C(C#N)=C(N)O2` (stereo not drawn) [Compound 2.637] registered an EC50 under setting [1] of under 10 nM. Still for that read-out and setting: as for `COc1ccc(-c2cc(C#N)cc(C3(C4CCC4)C(C#N)=C(N)Oc4[nH]nc(C)c43)c2)cc1C(F)(F)F` (stereo not drawn) [Compound 2.547], the figure is under 10 nM. For the compound `Cc1n[nH]c2c1C(c1cc(Cl)cc(-c3nccs3)c1)(C1CCC1)C(C#N)=C(N)O2` (stereo not drawn) [Compound 2.320], the EC50 under setting [3] was under 10 nM.

For `Cc1n[nH]c2c1C(c1cc(C#N)cc(-c3ccc(C(F)(F)F)cc3)c1)(C1CCC1)C(C#N)=C(N)O2` (stereo not drawn) [Compound 2.326], the EC50 under setting [3] is under 10 nM. Consider `Cc1n[nH]c2c1C(c1cc(C(F)(F)F)cc(C(F)(F)F)c1)(C1(F)COC1)C(C#N)=C(N)O2` (racemic) [Compound 2.501], for which the EC50 under setting [1] is under 10 nM. On the same count and under the same terms, for `Cc1n[nH]c2c1C(c1ccc(Cl)cc1)(C1CC1)C(C#N)=C(N)O2` (stereo not drawn) [Compound 2.46.] the value was under 1000 nM. `N#CC1=C(N)Oc2[nH]ncc2C1(c1cc(Cl)cc(C(F)(F)F)c1)C1CCC1` (stereo not drawn) [Compound 2.252] showed an EC50 under setting [3] of under 10 nM. Same read-out and setting: as for `N#CC1=C(N)Oc2[nH]ncc2C1(c1cc(C#N)cc(C(F)(F)F)c1)C1CC1` (stereo not drawn) [Compound 2.361], the figure is under 100 nM. Still for that read-out and setting: for `CSc1cccc(C2(C3CCC3)C(C#N)=C(N)Oc3[nH]ncc32)c1` (stereo not drawn) [Compound 2.311] the value was under 1000 nM. For the compound `CCC1(c2cccc(Cl)c2)C(C#N)=C(N)Oc2[nH]nc(C(F)F)c21` (stereo not drawn) [Compound 2.165.], the EC50 under setting [1] was under 1000 nM.

`CCC1(c2cc(Br)cc(C#N)c2)C(C#N)=C(N)Oc2[nH]nc(OC)c21` (stereo not drawn) [Compound 2.601] yielded an EC50 under setting [1] of under 1000 nM. In turn, `COc1ccc(Oc2cc(Cl)cc(C3(C4CCC4)C(C#N)=C(N)Oc4[nH]nc(C)c43)c2)cc1` (stereo not drawn) [Compound 2.344] returned an EC50 under setting [3] of under 10 nM. `CCc1n[nH]c2c1C(c1cccc(C(F)(F)F)c1)(C1CC1)C(C#N)=C(N)O2` (stereo not drawn) [Compound 2.104.] returned an EC50 under setting [1] of under 1000 nM.
